{"source": "patent US12077503B2", "about": "“Substituted cyclic amides and their use as herbicides” (FMC CORPORATION, priority 2015, dated 2024)", "format_in_all_cases": "in vivo", "key": {"[1]": {"tested_on": "barnyardgrass (Echinochloa crus-galli)", "assay": "Test G Pre-Emergence Protocol", "conditions": "Echinochloa crus-galli, pre-emergence, 312 h, evaluated after 13 days", "how_it_was_run": "(§1)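 One day after sowing, pots are treated with a spray of test compound formulated in acetone/water 50:50 plus 0.5% Tween 20, giving 15.625, 62.5 or 250 g/ha. Evaluation on a 0–100 damage scale follows 13 days of glasshouse growth.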"}, "corn (Zea mays) [2]": {"tested_on": "corn (Zea mays)", "assay": "Test G Pre-Emergence Protocol", "conditions": "Zea mays, pre-emergence, 312 h, evaluated after 13 days", "how_it_was_run": "as §1"}, "[3]": {"tested_on": "giant foxtail (Setaria faberi)", "assay": "Test G Pre-Emergence Protocol", "conditions": "Setaria faberi, pre-emergence, 312 h, evaluated after 13 days", "how_it_was_run": "as §1"}, "[4]": {"tested_on": "ivy-leaved morning glory (Ipomoea hederacea)", "assay": "Test G Pre-Emergence Protocol", "conditions": "Ipomoea, pre-emergence, 312 h, evaluated after 13 days", "how_it_was_run": "as §1"}, "[5]": {"tested_on": "redroot pigweed (Amaranthus retroflexus)", "assay": "Test G Pre-Emergence Protocol", "conditions": "Amaranthus retroflexus, pre-emergence, 312 h, evaluated after 13 days", "how_it_was_run": "as §1"}, "[6]": {"tested_on": "velvetleaf (Abutilon theophrasti)", "assay": "Test G Pre-Emergence Protocol", "conditions": "Abutilon theophrasti, pre-emergence, 312 h, evaluated after 13 days", "how_it_was_run": "as §1"}, "[7]": {"tested_on": "barnyardgrass (Echinochloa crus-galli)", "assay": "Test G Post-Emergence Protocol", "conditions": "Echinochloa crus-galli, post-emergence, 312 h", "how_it_was_run": "(§2)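 Damage was rated 13 days after treatment from 0 (none) to 100 (plant killed). Compound was applied as a spray at 15.625, 62.5 or 250 g/ha in 50:50 acetone/water containing 0.5% Tween 20, onto 8-day-old potted plants kept in a glasshouse (24/16 °C, 14 h light, 65% humidity).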"}, "corn (Zea mays) [8]": {"tested_on": "corn (Zea mays)", "assay": "Test G Post-Emergence Protocol", "conditions": "Zea mays, post-emergence, 312 h", "how_it_was_run": "as §2"}, "[9]": {"tested_on": "giant foxtail (Setaria faberi)", "assay": "Test G Post-Emergence Protocol", "conditions": "Setaria faberi, post-emergence, 312 h", "how_it_was_run": "as §2"}, "[10]": {"tested_on": "ivy-leaved morning glory (Ipomoea hederacea)", "assay": "Test G Post-Emergence Protocol", "conditions": "Ipomoea, post-emergence, 312 h", "how_it_was_run": "as §2"}, "[11]": {"tested_on": "redroot pigweed (Amaranthus retroflexus)", "assay": "Test G Post-Emergence Protocol", "conditions": "Amaranthus retroflexus, post-emergence, 312 h", "how_it_was_run": "as §2"}, "[12]": {"tested_on": "velvetleaf (Abutilon theophrasti)", "assay": "Test G Post-Emergence Protocol", "conditions": "Abutilon theophrasti, post-emergence, 312 h", "how_it_was_run": "as §2"}}, "data": [{"molecule": "COc1c(Cl)ccc([C@H]2CNC(=O)[C@@H]2C(=O)Nc2cccc(F)c2F)c1F", "note": "(racemic) [Compound 1472]", "values": [{"measurement": "pest or weed control at 15.625 g/ha", "setting": "[1]; 15.625 g ai/ha, read-out: Barnyard grass damage rating (100=total damage to plant; 0=no damage to plant)", "result": 10, "unit": "%"}, {"measurement": "pest or weed control at 62.5 g/ha", "setting": "[1]; 62.5 g ai/ha, 100=total damage to plant, 0=no damage to plant, read-out: plant damage rating, Barnyardgrass", "result": 40, "unit": "%"}, {"measurement": "pest or weed control at 250 g/ha", "setting": "[1]; 250 g ai/ha, read-out: Barnyardgrass damage rating (100=total damage to plant; 0=no damage to plant)", "result": 80, "unit": "%"}, {"measurement": "plant injury at 15.625 g/ha", "setting": "corn (Zea mays) [2]; 15.625 g ai/ha, read-out: Corn damage rating (100=total damage to plant; 0=no damage to plant)", "result": 0, "unit": "%"}, {"measurement": "plant injury at 62.5 g/ha", "setting": "corn (Zea mays) [2]; 62.5 g ai/ha, 100=total damage to plant, 0=no damage to plant, read-out: plant damage rating, Corn", "result": 0, "unit": "%"}, {"measurement": "plant injury at 250 g/ha", "setting": "corn (Zea mays) [2]; 250 g ai/ha, read-out: Corn damage rating (100=total damage to plant; 0=no damage to plant)", "result": 20, "unit": "%"}, {"measurement": "pest or weed control at 15.625 g/ha", "setting": "[3]; 15.625 g ai/ha, read-out: Foxtail, Giant damage rating (100=total damage to plant; 0=no damage to plant)", "result": 10, "unit": "%"}, {"measurement": "pest or weed control at 62.5 g/ha", "setting": "[3]; 62.5 g ai/ha, 100=total damage to plant, 0=no damage to plant, read-out: plant damage rating, Foxtail, Giant", "result": 50, "unit": "%"}, {"measurement": "pest or weed control at 250 g/ha", "setting": "[3]; 250 g ai/ha, read-out: Foxtail, Giant damage rating (100=total damage to plant; 0=no damage to plant)", "result": 80, "unit": "%"}, {"measurement": "pest or weed control at 15.625 g/ha", "setting": "[4]; 15.625 g ai/ha, read-out: Morning-glory, Ivy-leaved damage rating (100=total damage to plant; 0=no damage to plant)", "result": 0, "unit": "%"}, {"measurement": "pest or weed control at 62.5 g/ha", "setting": "[4]; 62.5 g ai/ha, 100=total damage to plant, 0=no damage to plant, read-out: plant damage rating, Morningglory, Ivy-leaved", "result": 0, "unit": "%"}, {"measurement": "pest or weed control at 250 g/ha", "setting": "[4]; 250 g ai/ha, read-out: Morningglory, Ivy-leaved damage rating (100=total damage to plant; 0=no damage to plant)", "result": 0, "unit": "%"}, {"measurement": "pest or weed control at 15.625 g/ha", "setting": "[5]; 15.625 g ai/ha, read-out: Pigweed, Redroot damage rating (100=total damage to plant; 0=no damage to plant)", "result": 0, "unit": "%"}, {"measurement": "pest or weed control at 62.5 g/ha", "setting": "[5]; 62.5 g ai/ha, 100=total damage to plant, 0=no damage to plant, read-out: plant damage rating, Pigweed, Redroot", "result": 0, "unit": "%"}, {"measurement": "pest or weed control at 250 g/ha", "setting": "[5]; 250 g ai/ha, read-out: Pigweed, Redroot damage rating (100=total damage to plant; 0=no damage to plant)", "result": 0, "unit": "%"}, {"measurement": "pest or weed control at 15.625 g/ha", "setting": "[6]; 15.625 g ai/ha, read-out: Velvetleaf damage rating (100=total damage to plant; 0=no damage to plant)", "result": 0, "unit": "%"}, {"measurement": "pest or weed control at 62.5 g/ha", "setting": "[6]; 62.5 g ai/ha, 100=total damage to plant, 0=no damage to plant, read-out: plant damage rating, Velvetleaf", "result": 0, "unit": "%"}, {"measurement": "pest or weed control at 250 g/ha", "setting": "[6]; 250 g ai/ha, read-out: Velvetleaf damage rating (100=total damage to plant; 0=no damage to plant)", "result": 0, "unit": "%"}, {"measurement": "pest or weed control at 15.625 g/ha", "setting": "[7]; 15.625 g ai/ha, evaluated after 13 days (100=total damage to plant; 0=no damage to plant), read-out: Barnyardgrass damage rating", "result": 10, "unit": "%"}, {"measurement": "pest or weed control at 62.5 g/ha", "setting": "[7]; 62.5 g ai/ha, evaluated after 13 days, read-out: Barnyardgrass damage rating (100=total damage to plant; 0=no damage to plant)", "result": 30, "unit": "%"}, {"measurement": "pest or weed control at 250 g/ha", "setting": "[7]; 250 g ai/ha, evaluated after 13 days, read-out: damage to plant, Barnyardgrass (100=total damage to plant; 0=no damage to plant)", "result": 50, "unit": "%"}, {"measurement": "plant injury at 15.625 g/ha", "setting": "corn (Zea mays) [8]; 15.625 g ai/ha, evaluated after 13 days (100=total damage to plant; 0=no damage to plant), read-out: Corn damage rating", "result": 10, "unit": "%"}, {"measurement": "plant injury at 62.5 g/ha", "setting": "corn (Zea mays) [8]; 62.5 g ai/ha, evaluated after 13 days, read-out: Corn damage rating (100=total damage to plant; 0=no damage to plant)", "result": 20, "unit": "%"}, {"measurement": "plant injury at 250 g/ha", "setting": "corn (Zea mays) [8]; 250 g ai/ha, evaluated after 13 days, read-out: damage to plant, Corn (100=total damage to plant; 0=no damage to plant)", "result": 40, "unit": "%"}, {"measurement": "pest or weed control at 15.625 g/ha", "setting": "[9]; 15.625 g ai/ha, evaluated after 13 days (100=total damage to plant; 0=no damage to plant), read-out: Foxtail, Giant damage rating", "result": 10, "unit": "%"}, {"measurement": "pest or weed control at 62.5 g/ha", "setting": "[9]; 62.5 g ai/ha, evaluated after 13 days, read-out: Foxtail, Giant damage rating (100=total damage to plant; 0=no damage to plant)", "result": 50, "unit": "%"}, {"measurement": "pest or weed control at 250 g/ha", "setting": "[9]; 250 g ai/ha, evaluated after 13 days, read-out: damage to plant, Foxtail, Giant (100=total damage to plant; 0=no damage to plant)", "result": 70, "unit": "%"}, {"measurement": "pest or weed control at 15.625 g/ha", "setting": "[10]; 15.625 g ai/ha, evaluated after 13 days (100=total damage to plant; 0=no damage to plant), read-out: Morningglory, Ivy-leaved damage rating", "result": 20, "unit": "%"}, {"measurement": "pest or weed control at 62.5 g/ha", "setting": "[10]; 62.5 g ai/ha, evaluated after 13 days, read-out: Morningglory, Ivy-leaved damage rating (100=total damage to plant; 0=no damage to plant)", "result": 20, "unit": "%"}, {"measurement": "pest or weed control at 250 g/ha", "setting": "[10]; 250 g ai/ha, evaluated after 13 days, read-out: damage to plant, Morningglory, Ivy-leaved (100=total damage to plant; 0=no damage to plant)", "result": 20, "unit": "%"}, {"measurement": "pest or weed control at 15.625 g/ha", "setting": "[11]; 15.625 g ai/ha, evaluated after 13 days (100=total damage to plant; 0=no damage to plant), read-out: Pigweed, Redroot damage rating", "result": 0, "unit": "%"}, {"measurement": "pest or weed control at 62.5 g/ha", "setting": "[11]; 62.5 g ai/ha, evaluated after 13 days, read-out: Pigweed, Redroot damage rating (100=total damage to plant; 0=no damage to plant)", "result": 10, "unit": "%"}, {"measurement": "pest or weed control at 250 g/ha", "setting": "[11]; 250 g ai/ha, evaluated after 13 days, read-out: damage to plant, Pigweed, Redroot (100=total damage to plant; 0=no damage to plant)", "result": 10, "unit": "%"}, {"measurement": "pest or weed control at 15.625 g/ha", "setting": "[12]; 15.625 g ai/ha, evaluated after 13 days (100=total damage to plant; 0=no damage to plant), read-out: Velvetleaf damage rating", "result": 0, "unit": "%"}, {"measurement": "pest or weed control at 62.5 g/ha", "setting": "[12]; 62.5 g ai/ha, evaluated after 13 days, read-out: Velvetleaf damage rating (100=total damage to plant; 0=no damage to plant)", "result": 10, "unit": "%"}, {"measurement": "pest or weed control at 250 g/ha", "setting": "[12]; 250 g ai/ha, evaluated after 13 days, read-out: damage to plant, Velvetleaf (100=total damage to plant; 0=no damage to plant)", "result": 10, "unit": "%"}]}]}
